Data taken from publication PMC10818749, “Toxicity Studies of Cardiac-Targeting Peptide Reveal a Robust Safety Profile” (Pharmaceutics, 2024).
Ends that are not written are not given here.

Assays:
[1] = tested on: human left ventricular myocyte cell line; experiment: Fluorescence-activated cell sorting (FACS) live-dead viability; assay type: cell-based; conditions: 10 µM, 30 min incubation, live-dead stain, biological triplicates and technical quadruplicates (n = 4), vs no treatment or vehicle
Description: Fluorescence-Activated Cell Sorting Assays: CTP was tested in a human left ventricular myocyte cell line (Celprogen, Torrance, CA, USA; cat #36044-15) for uptake and assessment of its effects on cell viability. Cells were plated onto 6-well plates at a density of 100,000 cells per well and incubated overnight at 37 °C/5% CO2. The following day media was replaced with fresh media containing 10 µM CTP-Cy5.5, or a random (RAN-CY5.5) peptide. A yellow live-dead stain (Invitrogen, Carlsbad, CA, USA; cat #L34968) was added to all wells, including the negative control or vehicle only treated controls, and cells were incubated for 30 min, after which media aspirated, cells washed 3× with pre-warmed phosphate-buffered saline (PBS), trypsinized, and collected. After collection, cells were washed once with PBS, fixed with 2% paraformaldehyde at room temperature for 10 min, washed once again and resuspended in 1000 µL of PBS. Fluorescence activated cell sorting (FACS) was performed using lasers selected for live-dead and Cy5.5 fluorophores, and 10,000 cells counted in Fortessa. The data generated were gated on the presence of the live-dead stain providing the percent viability of cells [(live/(live + dead cells)) × 100] after treatment with various peptides.

[2] = target: hERG (Homo sapiens, UniProt Q12809); experiment: in vitro; assay type: cell-based; conditions: up to 30 µM
Description: Ion Channel Assays: Cell lines were grown, plated, and loaded with 1× loading buffer containing 1× dye and 2.5 mM freshly prepared probenecid. Assays were performed, and activity was measured using a FLIPR Tetra. Percent of activation and percent of inhibition were calculated to determine agonist and antagonist activity, respectively. […]
The FLIPR Potassium Assay Kit from Molecular Devices is used. It exploits the permeability of thallium ions (Tl+) through both voltage-and ligand-gated potassium (K+) channels. A novel, highly-sensiti ve
Tl+ indicator dye is utilized which produces a bright fluorescent signal upon the binding to Tl+ conducted through potassium chan-nels. […]
KINOMEscan® Assay fluorescence for improved signal/noise ratio.
The KINOMEscan screening platform employs a novel and propri- Membrane Potential Assay etary active site-directed competition binding assay to quantitatively The FLIPR® Membrane Potential Assay Kit is used which utilizes a pro-measure interactions between test compounds and the kinases. prietary fluorescent indicator dye in combination with a quencher to This robust and reliable assay technology affords investigators the reflect real-time membrane potential changes associated with ion ability to extensively annotate compounds with accurate, precise channel activation and ion transporter proteins. […]

Chain of hERG (Q12809 whole entry): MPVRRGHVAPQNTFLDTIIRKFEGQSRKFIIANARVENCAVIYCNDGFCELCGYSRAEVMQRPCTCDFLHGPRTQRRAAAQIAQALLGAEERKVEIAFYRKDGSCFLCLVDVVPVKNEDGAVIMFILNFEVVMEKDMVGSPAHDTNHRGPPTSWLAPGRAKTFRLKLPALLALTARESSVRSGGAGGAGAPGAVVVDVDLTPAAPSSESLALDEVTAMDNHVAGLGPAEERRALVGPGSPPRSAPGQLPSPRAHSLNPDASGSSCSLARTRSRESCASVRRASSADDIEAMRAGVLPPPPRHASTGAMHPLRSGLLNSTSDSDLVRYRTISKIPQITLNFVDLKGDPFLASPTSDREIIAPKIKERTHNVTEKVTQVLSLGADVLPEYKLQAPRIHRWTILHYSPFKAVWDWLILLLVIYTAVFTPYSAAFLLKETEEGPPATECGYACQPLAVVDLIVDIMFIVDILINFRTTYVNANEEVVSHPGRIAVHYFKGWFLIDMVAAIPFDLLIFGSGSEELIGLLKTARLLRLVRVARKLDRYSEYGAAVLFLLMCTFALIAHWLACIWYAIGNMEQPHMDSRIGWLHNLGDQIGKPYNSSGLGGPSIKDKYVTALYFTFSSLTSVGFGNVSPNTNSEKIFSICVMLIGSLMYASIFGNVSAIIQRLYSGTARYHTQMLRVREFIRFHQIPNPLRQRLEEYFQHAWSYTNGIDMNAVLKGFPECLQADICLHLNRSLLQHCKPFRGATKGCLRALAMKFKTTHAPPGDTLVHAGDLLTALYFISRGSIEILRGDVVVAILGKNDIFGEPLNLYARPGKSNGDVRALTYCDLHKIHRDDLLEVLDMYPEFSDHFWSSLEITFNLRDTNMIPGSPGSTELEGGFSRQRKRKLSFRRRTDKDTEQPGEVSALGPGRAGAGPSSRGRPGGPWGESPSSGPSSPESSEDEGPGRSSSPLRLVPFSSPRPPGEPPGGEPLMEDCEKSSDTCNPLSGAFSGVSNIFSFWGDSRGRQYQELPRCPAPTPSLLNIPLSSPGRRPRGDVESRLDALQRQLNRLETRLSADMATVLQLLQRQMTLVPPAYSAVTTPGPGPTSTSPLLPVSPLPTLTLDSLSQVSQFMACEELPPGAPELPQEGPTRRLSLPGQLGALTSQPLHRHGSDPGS

APWHLSSQYSRT [CTP]
cell viability [1]: remained unchanged
blocking or activation ([2]; SAFETYscan ion channel assay): no significant blocking or activation
IC50 ([2]; human, blocker, FLIPR Tetra, read-out: RC50 (the source's name)): > 30 µM
